Test results as given in US20230147389A1, “Transdermal Drug Delivery System for Delivering a Drug to a Patient” (priority 2021, published 2023).
Read-outs that look alike come from different tables or passages of the source.

Tests used:
[1] = pig
From the text: Further, the rate of permeation may be determined using the Attenuated Total Reflection Fourier Transform Infrared Spectroscopy (ATR-FTIR), and multivariate modeling. […] The flux results may be obtained based on comprehensive in vitro permeation studies by using the pig abdominal skin samples, that may be normalized to reflect the equivalence of 0.10 cm skin thickness.
A proprietary chemometric modeling method may be used to perform quantitative analysis based on spectral data. In addition, the method may be used to determine the concentration of the active ingredient dissolved in the EthoGel formulation.
The skin permeation study may be conducted using a Bruker ATR-FTIR instrument (Model Alpha; Bruker Optics Ltd., MA, USA) equipped with a 2×2 mm diamond spectral window. Pig abdominal skin samples may be obtained from a local meat supplier. The skin samples may be treated by removing the fat and connecting tissues from the dermis side, followed by cutting them into 2×2 cm-size pieces and keeping them at freezing temperature for later use. Further, skin thickness may be measured before the experiment by allowing the skin sample to warm to room temperature and by using a Material Thickness Meter (Model No. PCE-CT 26; PCE Americas Inc, Jupiter, Fla., USA).
In a typical experiment, the skin sample may be put on the spectral window of the spectrometer with the dermis side facing the window. Further, about 1 g of the EthoGel formulation may be applied on the stratum corneum side of the skin sample, which may be covered by an applicator with an area of 3.5 cm^2 to minimize the loss of permeation enhancers (i.e., ethanol) through evaporation from the formulation. IR spectra may be taken at 15-60 min intervals and the experiment may be continued for up to 72 hours when needed. Further, the spectra may be used for calculating w/w % of the active ingredient (ibuprofen or diclofenac), ethanol, and glycerin on the dermis side of the skin. Chemometric modeling may be conducted using the software Unscrambler (CAMO Software AS, Oslo, Norway). The diffusion coefficients of the active ingredient, ethanol, and glycerin can be calculated using the following equation:
where D is the diffusion coefficient (cm2/H), L is the lag time (hour) and h is the skin thickness (cm).
The flux J (μg/cm2/H) is calculated using the following equation:
where D is the diffusion coefficient, C is the concentration (μg/mL) of the active ingredient dissolved in the EthoGel formulation and h is the thickness of the skin.

[2] = current marketed TD patch products; per 24 hours; cited from earlier work

Structure (SMILES) | flux achieved by EGATDDS [1] | flux ([1]; 1 w/w %) [μg/cm2/H] | flux ([1]; 4 w/w %) [μg/cm2/H] | amount of drug delivered in 24 hours [2] [mg]
O=C(O)Cc1ccccc1Nc1c(Cl)cccc1Cl [diclofenac, Diclofenac] | 5-324 μg/cm2/H | 54 | – | –
CC(C)Cc1ccc(C(C)C(=O)O)cc1 (stereo not drawn) [ibuprofen, Ibuprofen] | 25-1337 μg/cm2/H | – | 283 | –
CCCN(CCc1cccs1)[C@H]1CCc2c(O)cccc2C1 [ritigotine] | – | – | – | 1
CCN(C)C(=O)Oc1cccc([C@H](C)N(C)C)c1 [rivastigmine] | – | – | – | 4.5
